In BindingDB's records for doi:10.1016/j.bmcl.2006.12.086 (Valeant Pharmaceuticals Research and Development, 2007) one finds IC50 data, which are given here for six molecules.

The target of this test is Serine/threonine-protein kinase pim-1 (Homo sapiens, UniProt P11309). Put plainly: Radioactive Filter Plate Assay. As to conditions: pH 7.5; 23 °C. Here is the method:
PIM-1 kinase activity was evaluated using calf thymus histones as the substrate in a 96-well filter plate format. After incubation, the plate was washed and dried. The scintillation cocktail was added and the radioactivity counted on a TopCount plate reader (Perkin-Elmer).

SMILES strings stand for the structures.

As usually defined, the IC50 is the point on the concentration scale where inhibition reaches its midpoint.

Serine/threonine-protein kinase pim-1, sequence (P11309 whole entry): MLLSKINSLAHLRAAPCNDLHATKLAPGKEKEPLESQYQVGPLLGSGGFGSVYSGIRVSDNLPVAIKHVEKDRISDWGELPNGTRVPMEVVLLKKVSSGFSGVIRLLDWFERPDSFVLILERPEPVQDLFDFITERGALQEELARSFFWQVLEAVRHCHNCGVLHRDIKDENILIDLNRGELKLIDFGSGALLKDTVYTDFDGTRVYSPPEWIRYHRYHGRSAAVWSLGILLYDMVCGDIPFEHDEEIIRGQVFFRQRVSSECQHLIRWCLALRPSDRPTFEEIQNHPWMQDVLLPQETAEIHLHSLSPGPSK

Turning to `N#Cc1c(-c2cccs2)cc(-c2cccs2)nc1O` [2-oxo-4,6-bis(thiophen-2-yl)-1,2-dihydropyridine-3-carbonitrile], the IC50 amounted to 0.99 µM.

As to `N#Cc1c(-c2cccs2)c2c([nH]c1=O)-c1ccccc1SC2` [4-oxo-6-(thiophen-2-yl)-9-thia-3-azatricyclo[8.4.0.0^{2,7}]tetradeca-1(10),2(7),5,11,13-pentaene-5-carbonitrile], the 50% inhibitory concentration (IC50) stood at 1.49 µM.

For `N#Cc1c(-c2cccs2)cc(C(F)(F)F)[nH]c1=O` [2-oxo-4-(thiophen-2-yl)-6-(trifluoromethyl)-1,2-dihydropyridine-3-carbonitrile], the IC50 came out at 3.54 µM.

As to `N#Cc1c(-c2cccs2)c2c([nH]c1=O)-c1ccccc1OC2` [4-oxo-6-(thiophen-2-yl)-9-oxa-3-azatricyclo[8.4.0.0^{2,7}]tetradeca-1(14),2(7),5,10,12-pentaene-5-carbonitrile], the 50% inhibitory concentration (IC50) is 0.46 µM.

Regarding `N#Cc1c(C(F)(F)F)cc(-c2ccco2)[nH]c1=O` [6-(furan-2-yl)-2-oxo-4-(trifluoromethyl)-1,2-dihydropyridine-3-carbonitrile], the IC50 stood at 16 µM.

`N#Cc1c(-c2ccco2)c2c([nH]c1=O)-c1ccccc1OC2` [6-(furan-2-yl)-4-oxo-9-oxa-3-azatricyclo[8.4.0.0^{2,7}]tetradeca-1(14),2(7),5,10,12-pentaene-5-carbonitrile]: the IC50 is 0.87 µM.
